Earlier results as cited in US8802735B2, “(Z)-2-cyano-3-hydroxy-but-2-enoic acid-(4'-trifluormethylphenyl)-amide tablet formulations with improved stability” (Sanofi, priority 2009, dated 2014).

Biological target: dihydroorotate dehydrogenase (Homo sapiens, UniProt Q02127)
Conditions: Bruneau J-M, et al., Biochem. J. 1998

Chain of dihydroorotate dehydrogenase (Q02127 whole entry): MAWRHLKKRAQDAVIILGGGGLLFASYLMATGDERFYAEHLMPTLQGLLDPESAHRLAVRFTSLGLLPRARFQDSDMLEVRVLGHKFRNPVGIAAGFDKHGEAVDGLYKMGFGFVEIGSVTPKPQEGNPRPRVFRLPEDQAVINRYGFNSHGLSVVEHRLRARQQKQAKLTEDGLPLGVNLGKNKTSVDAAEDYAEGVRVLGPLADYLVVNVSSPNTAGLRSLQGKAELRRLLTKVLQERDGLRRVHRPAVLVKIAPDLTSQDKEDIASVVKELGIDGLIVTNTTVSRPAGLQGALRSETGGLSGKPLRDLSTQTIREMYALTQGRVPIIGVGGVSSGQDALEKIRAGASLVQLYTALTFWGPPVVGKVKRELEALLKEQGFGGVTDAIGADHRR

- inhibition of the enzyme dihydroorotate dehydrogenase: inhibits
SMILES: C/C(O)=C(\C#N)C(=O)Nc1ccc(C(F)(F)F)cc1 [Teriflunomide, (Z)-2-cyano-3-hydroxy-but-2-enoic acid-(4′-trifluoromethylphenyl)-amide]
